Experimental data: patent US20250332173A1, “COMPOUNDS AND METHODS FOR MODULATING NUCLEIC ACID SPLICING” (REMIX THERAPEUTICS INC., priority 2021, published 2025)
Where two headings read alike, the source gives them in different places.

Tests used:
Target C = assay: RT-qPCR splicing assay panel, Target C canonical junction (CJ) mRNA; format: cell-based, human; conditions: Homo sapiens; Table 5 panel; canonical junction qPCR; compound concentration having 50% response in CJ decrease; read-out: Target C IC50 (decrease in CJ mRNA levels)
Method in brief: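 Cells are plated (A673 allowed 24 h to adhere), dosed with an 11-point 3-fold series topping at 10 uM final, and incubated 24 h at 37 °C. Lysis is followed by cDNA synthesis and qPCR of the CJ transcript, normalized to a housekeeping gene.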

MYB = assay: HiBiT protein abundance assay, MYB HiBiT K562 cell line; format: cell-based, human; conditions: HiBiT K562 cell line, 24 hours, top dose 10 μM; read-out: Effect on protein abundance, MYB (IC50 category)
Method in brief: (§1)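 K562 knock-in lines with endogenous HiBiT-tagged target, 10,000 cells/well in IMDM + FBS, treated 24 h at 37° C with 10-point 3-fold dilutions (top 10 μM final; DMSO ≤0.25%). Lytic Nano-Glo HiBiT luminescence normalized to untagged K562 baseline and DMSO controls; IC50 = concentration giving 50% abundance via four-parameter fit.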

HTT = assay: HiBiT protein abundance assay, HTT HiBiT K562 cell line; format: cell-based, human; conditions: HiBiT K562 cell line, 24 hours, top dose 10 μM; read-out: Effect on protein abundance, HTT (IC50 category)
Method in brief: as §1

[1] = test system: K562 (human chronic myelogenous leukemia) cells; assay: Cell Titer Glo 2.0 cell viability assay; format: cell-based; conditions: K562 cells, 72 hours, Cell Titer Glo 2.0, read-out: K562 GI50

Compound | IC50 (Target C) [nM] | IC50 (MYB) [nM] | IC50 (HTT) [nM] | GI50 ([1]; Homo sapiens, K562, 72 h) [nM] | GI50 [1] [nM]
CCN1CCC(N2CCc3cc(-c4cc(C)c5nc(C)cn5n4)ccc3C2=O)CC1 [Compound 270] | > 10000 | 100 to 1000 | 1000 to 10000 | 1000 to 10000 | –
Cc1cn2nc(-c3ccc4c(=O)n(C5CCNCC5)cnc4c3)nc2c(C)n1 [Compound 287, 7-{6,8-dimethyl-[1,2,4]triazolo[1,5-a]pyrazin-2-yl}-3-(piperidin-4-yl)quinazolin-4-one] | 100 to 1000 | 100 to 1000 | 100 to 1000 | 100 to 1000 | –
Cc1cn2cc(-c3cc(F)c4c(=O)n([C@H]5CNCC[C@@H]5O)cnc4c3)cc(F)c2n1 [Compound 348, 5-fluoro-7-{8-fluoro-2-methylimidazo[1,2-a]pyridin-6-yl}-3-[(3S,4S)-4-hydroxypiperidin-3-yl]quinazolin-4-one] | > 10000 | > 10000 | > 10000 | > 10000 | –
Cc1cn2cc(-c3ccc4c(=O)n(C5CCNCC5)cnc4c3)ncc2n1 [Compound 297] | 1000 to 10000 | 100 to 1000 | 1000 to 10000 | 1000 to 10000 | –
CC[C@@H]1C[C@H](n2ncc3cc(-c4cc(C)c5nc(C)cn5n4)ccc3c2=O)CCN1 [Compound 304] | 1000 to 10000 | 100 to 1000 | 100 to 1000 | 100 to 1000 | –
Cc1cn2cc(-c3cc(F)c4c(=O)n([C@H]5CCNC[C@H]5F)cnc4c3)cc(F)c2n1 [Compound 338] | 1000 to 10000 | 100 to 1000 | 1000 to 10000 | 100 to 1000 | –
Cc1cn2nc(-c3ccc4c(=O)n([C@@H]5CCNC6(CC6)C5)cnc4c3)cc(C)c2n1 [Compound 350, 3-[(7R)-4-azaspiro[2.5]octan-7-yl]-7-{2,8-dimethylimidazo[1,2-b]pyridazin-6-yl}quinazolin-4-one] | 100 to 1000 | < 100 | 100 to 1000 | – | 100 to 1000
Cc1cn2nc(-c3ccc4c(c3)CCN(C3CCNC(C)(C)C3)C4=O)cc(C)c2n1 (stereo not drawn) [Compound 267] | 1000 to 10000 | 100 to 1000 | 100 to 1000 | 1000 to 10000 | –
Cc1cn2cc(-c3cc(F)c4c(=O)n([C@H]5CCNC[C@@H]5O)cnc4c3)cc(F)c2n1 [Compound 347, 5-fluoro-7-{8-fluoro-2-methylimidazo[1,2-a]pyridin-6-yl}-3-[(3S,4S)-3-hydroxypiperidin-4-yl]quinazolin-4-one] | 1000 to 10000 | 1000 to 10000 | > 10000 | > 10000 | –
Cc1cn2nc(-c3ccc4c(=O)n(C5CCN(C)C5)ncc4c3)cc(C)c2n1 (stereo not drawn) [Compound 271] | 1000 to 10000 | 1000 to 10000 | 1000 to 10000 | 1000 to 10000 | –
Cc1cn2cc(-c3ccc4c(=O)n(C5CCNCC5)cnc4c3)cc(C)c2n1 [Compound 292] | 1000 to 10000 | 100 to 1000 | 100 to 1000 | 100 to 1000 | –
Cc1cn2nc(-c3ccc4c(=O)n(C5CCNC6(CC6)C5)ncc4c3)cc(C)c2n1 (stereo not drawn) [Compound 274] | < 100 | < 100 | < 100 | 100 to 1000 | –
CN1CCC(n2cnc3cc(-c4cn[nH]c4)ccc3c2=O)CC1 [Compound 299] | > 10000 | > 10000 | > 10000 | > 10000 | –
Cc1cn2nc(-c3ccc4c(=O)n([C@@H]5CCN(C)[C@H](C)C5)ncc4c3)cc(C)c2n1 [Compound 277] | 1000 to 10000 | 100 to 1000 | 100 to 1000 | 1000 to 10000 | –
Cc1cc(-c2cc(F)c3c(=O)n(C4CCNC5(CC5)C4)cnc3c2)nc2cn(C)nc12 (stereo not drawn) [Compound 361, 3-{4-azaspiro[2.5]octan-7-yl}-7-{2,7-dimethylpyrazolo[4,3-b]pyridin-5-yl}-5-fluoroquinazolin-4-one] | 100 to 1000 | < 100 | < 100 | 100 to 1000 | –
Cc1cn2cc(-c3ccc4c(=O)n(C5CCNCC5)cnc4c3)nc2c(C)n1 [Compound 286] | 1000 to 10000 | 100 to 1000 | 1000 to 10000 | 100 to 1000 | –
CN1CCN(c2ccc3c(=O)n(-c4ccc5nn(C)cc5c4)cnc3c2)CC1 [Compound 152] | > 10000 | > 10000 | > 10000 | 1000 to 10000 | –
Cc1cn2nc(-c3ccc4c(=O)n(C5CCNC(C)(C)C5)ncc4c3)cc(C)c2n1 (stereo not drawn) [Compound 279] | 100 to 1000 | 100 to 1000 | < 100 | 1000 to 10000 | –
CNc1cc(-c2cn3cc(C)nc3c(C)n2)cc2ncn(C3CCNCC3)c(=O)c12 [Compound 360, 7-{2,8-dimethylimidazo[1,2-a]pyrazine-6-yl}-5-(methylamino)-3-(piperidin-4-yl)quinazolin-4-one] | > 10000 | > 10000 | > 10000 | 1000 to 10000 | –

Compound | IC50 (Target C) [nM] | IC50 (MYB) [nM] | IC50 (HTT) [nM] | GI50 ([1]; Homo sapiens, K562, 72 h) [nM] | GI50 [1] [nM]
Cc1cn2nc(-c3ccc4c(=O)n(C5CCN(C)CC5)cnc4c3)cc2c(C)n1 [Compound 303] | 1000 to 10000 | 1000 to 10000 | 1000 to 10000 | 1000 to 10000 | –
Cc1cn2cc(-c3cc(F)c4c(=O)n(C5CCCNCC5)cnc4c3)cc(F)c2n1 (stereo not drawn) [Compound 353, 3-(azepan-4-yl)-5-fluoro-7-{8-fluoro-2-methylimidazo[1,2-a]pyridin-6-yl}quinazolin-4-one] | 1000 to 10000 | 100 to 1000 | 100 to 1000 | 100 to 1000 | –
Cc1cn2nc(-c3cc(F)c4c(=O)n(C5CCNCC5)ccc4c3)cc(C)c2n1 [Compound 322] | < 100 | < 100 | < 100 | < 100 | –
Cc1cn2cc(-c3cc(F)c4c(=O)n([C@H]5CCN[C@@H](C)C5)cnc4c3)cc(F)c2n1 (relative stereo) [Compound 343, cis-5-fluoro-7-(8-fluoro-2-methylimidazo[1,2-a]pyridin-6-yl)-3-(2-methylpiperidin-4-yl)quinazolin-4(3H)-one] | 100 to 1000 | < 100 | 100 to 1000 | 100 to 1000 | –
Cc1cn2nc(-c3cc(F)c4c(=O)n(C5CCNC6(CC6)C5)ncc4c3)cc(C)c2n1 (stereo not drawn) [Compound 312] | < 100 | < 100 | < 100 | 100 to 1000 | –
Cc1nc2c(F)cc(-c3ccc4c(=O)n(C5CCN(C)CC5)cnc4c3)cc2o1 [Compound 300] | 1000 to 10000 | 100 to 1000 | 100 to 1000 | 1000 to 10000 | –
Cn1cc2cc(-n3cnc4cc(C5=CCNCC5)ccc4c3=O)ccc2n1 [Compound 158] | – | 1000 to 10000 | > 10000 | – | –
Cc1cc(-c2ccc3c(=O)n(C4CCN(C)CC4)cnc3c2)cc2cn(C)nc12 [Compound 156] | – | 1000 to 10000 | 1000 to 10000 | – | –
Cc1cn2cc(-c3ccc4c(=O)n(C5CCN(C)CC5)cnc4c3)nc2c(C)n1 [Compound 302] | 1000 to 10000 | 1000 to 10000 | 1000 to 10000 | 1000 to 10000 | –
Cc1ncc(-c2ccc3c(=O)n(C4CCNCC4)cnc3c2)cn1 [Compound 354, 7-(2-methylpyrimidin-5-yl)-3-(piperidin-4-yl)quinazolin-4(3H)-one] | 1000 to 10000 | 1000 to 10000 | 1000 to 10000 | 1000 to 10000 | –
Cc1cn2cc(-c3ccc4c(=O)n([C@H]5CCN[C@H](C)C5)cnc4c3)cc(F)c2n1 [Compound 296] | 100 to 1000 | 100 to 1000 | 100 to 1000 | 100 to 1000 | –
Cc1cn2cc(-c3cc(F)c4c(=O)n(C5CNCCC5=O)cnc4c3)cc(F)c2n1 (stereo not drawn) [Compound 352, 5-fluoro-7-{8-fluoro-2-methylimidazo[1,2-a]pyridin-6-yl}-3-(4-oxopiperidin-3-yl)quinazolin-4-one] | > 10000 | > 10000 | > 10000 | > 10000 | –
Cc1cn2nc(-c3ccc4c(=O)n([C@H]5CCN(C)[C@H](C)C5)ncc4c3)cc(C)c2n1 [Compound 278] | 100 to 1000 | < 100 | < 100 | 100 to 1000 | –
Cc1cn2nc(-c3ccc4c(c3)CCN([C@@H]3CCN[C@H](C)C3)C4=O)cc(C)c2n1 [Compound 281] | 1000 to 10000 | 100 to 1000 | 1000 to 10000 | 1000 to 10000 | –
Cc1cn2cc(-c3ccc4c(=O)n([C@@H]5CCN[C@H](C)C5)cnc4c3)cc(F)c2n1 [Compound 295] | > 10000 | 1000 to 10000 | 1000 to 10000 | 100 to 1000 | –
CN1CC=C(c2ccc3c(=O)n(-c4ccc5nn(C)cc5c4)cnc3c2)CC1 [Compound 159] | – | > 10000 | > 10000 | – | –
Cc1cc(-c2ccc3c(=O)n(C4CC(C)(C)NC(C)(C)C4)cnc3c2)cc2cn(C)nc12 [Compound 157] | – | 1000 to 10000 | 1000 to 10000 | – | –
Cn1cc2cc(-n3cnc4cc(N5CCNCC5)ccc4c3=O)ccc2n1 [Compound 153] | – | > 10000 | > 10000 | – | –
Cc1cn2nc(-c3ccc4c(=O)n(C5CCN(C)CC5)cnc4c3F)cc(C)c2n1 [Compound 290] | 100 to 1000 | 100 to 1000 | 100 to 1000 | – | –
